Results reported in patent US20030207932A1, “Compositions that prevent post-traumatic hyperpigmentation and methods related thereto” (priority 2002, published 2003).

Test system: patients with a strong genetic predisposition to post traumatic hyperpigmentation
Experiment: Proof of concept in patients predisposed to post traumatic hyperpigmentation
Format: in vivo, human
Settings: five subjects; oral zafirlukast alone, 20 mg two times daily, two weeks prior and thereafter for two months
Experimental: The patients were known to have this predisposition because prior trauma pigmented areas. Five of the subjects were given the oral composition zafirlukast, two weeks prior and thereafter for two months. The dosage was 20 mg two time daily. The other five individuals were give the same medication that the same dosage for the same amount of time, but in addition, were also given a topical preparation.
Five further patients were then selected with obvious genetic predisposition to post traumatic hyperpigmentation. They were given only the topical composition after their surgical procedure. The topical composition was applied three times daily for two months after the procedure. […] This was completely unexpected. The topical composition, as administered, is described in Table 1 below.

SMILES: COc1cc(C(=O)NS(=O)(=O)c2ccccc2C)ccc1Cc1cn(C)c2ccc(NC(=O)OC3CCCC3)cc12 [zafirlukast]
- development of hyperpigmentation: In no case did hyperpigmentation develop
